Test results as given in DBAASP.
In brackets after ≈: the same amount, converted by molar mass.

How the values were obtained:
Test in all cases: ≥ marks a high value that may be exact or a test limit, other limits are often not marked, values filed in µg/mL are converted to µM
[1] = test system: Staphylococcus epidermidis ATCC 12228
[2] = test system: Staphylococcus aureus ATCC 29213
[3] = test system: Escherichia coli ATCC 25922
Escherichia coli = test system: Escherichia coli
[4] = test system: Pseudomonas aeruginosa ATCC 27853
Staphylococcus aureus = test system: Staphylococcus aureus

Compound	MIC [1]	MIC [2]	MIC [3]	MIC (Escherichia coli)	MIC [4]	MIC (Staphylococcus aureus)
CC(C)C[C@H](NC(=O)[C@H](CC(N)=O)NC(=O)[C@H](Cc1c[nH]c2ccccc12)NC(=O)[C@H](CCCN=C(N)N)NC(=O)[C@H](C)NC(=O)[C@H](CCCCN)NC(=O)[C@H](CCCCN)NC(=O)CNC(=O)[C@H](CC(C)C)NC(=O)[C@H](Cc1ccc(O)cc1)NC(=O)[C@H](Cc1ccc(O)cc1)NC(=O)CNC(=O)[C@H](Cc1c[nH]c2ccccc12)NC(=O)[C@H](CO)NC(=O)[C@H](CO)NC(=O)[C@H](Cc1c[nH]c2ccccc12)NC(=O)[C@H](CC(C)C)NC(=O)[C@H](CCCCN)NC(=O)[C@@H](NC(=O)[C@@H](NC(=O)[C@H](CC(C)C)NC(=O)[C@@H](N)CC(=O)O)[C@@H](C)O)[C@@H](C)O)C(=O)O [DLTTKLWSSWGYYLGKKARWNL]	25 µM (≈ 67.2 µg/mL)	–	–	–	–	–
CC[C@H](C)[C@H](NC(=O)[C@H](CCCN=C(N)N)NC(=O)[C@H](CCC(N)=O)NC(=O)[C@@H](NC(=O)[C@@H](NC(=O)[C@H](CCCN=C(N)N)NC(=O)[C@H](CCCCN)NC(=O)[C@@H](N)Cc1ccccc1)[C@@H](C)CC)C(C)C)C(=O)N[C@@H](CCCCN)C(=O)N[C@@H](CC(=O)O)C(=O)N[C@@H](CO)C(=O)N[C@@H](CC(C)C)C(=O)N[C@@H](CCCN=C(N)N)C(=O)O [FKRIVQRIKDSLR]	–	> 40 µM	10 µM (≈ 16.6 µg/mL)	–	–	–
CC[C@H](C)[C@H](NC(=O)CN)C(=O)NCC(=O)N[C@@H](C)C(=O)N[C@H](C(=O)N[C@@H](CC(C)C)C(=O)N[C@@H](CCCCN)C(=O)N[C@H](C(=O)N[C@@H](CC(C)C)C(=O)N[C@H](C(=O)N[C@H](C(=O)NCC(=O)N[C@@H](CC(C)C)C(=O)N1CCC[C@H]1C(=O)N[C@@H](C)C(=O)N[C@@H](CS)C(=O)N[C@H](C(=O)N[C@@H](CO)C(=O)N[C@@H](Cc1c[nH]c2ccccc12)C(=O)N[C@@H](CS)C(=O)N[C@@H](CCCCN)C(=O)N[C@@H](CCCN=C(N)N)C(=O)N[C@@H](CCCCN)C(=O)N[C@@H](CCCN=C(N)N)C(=O)N[C@@H](CCC(N)=O)C(=O)N[C@@H](CCC(N)=O)C(=O)O)[C@@H](C)CC)[C@@H](C)O)[C@@H](C)O)C(C)C)C(C)C [GIGAVLKVLTTGLPACISWCKRKRQQ]	–	> 40 µM	10 µM (≈ 28.3 µg/mL)	20 µM (≈ 56.5 µg/mL)	–	–
CC[C@H](C)[C@H](NC(=O)CN)C(=O)NCC(=O)N[C@@H](CCCCN)C(=O)N[C@@H](Cc1ccccc1)C(=O)N[C@@H](CC(C)C)C(=O)N[C@@H](Cc1cnc[nH]1)C(=O)N[C@@H](CO)C(=O)N[C@@H](C)C(=O)N[C@@H](CCCCN)C(=O)N[C@@H](CCCCN)C(=O)N1CCC[C@H]1C(=O)NCC(=O)N[C@@H](CCCCN)C(=O)N[C@@H](C)C(=O)N[C@@H](Cc1ccccc1)C(=O)N[C@H](C(=O)NCC(=O)N[C@@H](CCC(=O)O)C(=O)N[C@H](C(=O)N[C@@H](CCSC)C(=O)N[C@@H](CC(N)=O)C(=O)N[C@@H](CO)C(N)=O)[C@@H](C)CC)C(C)C [GIGKFLHSAKKPGKAFVGEIMNS]	–	106 µM (≈ 256 µg/mL)	26.5 µM (≈ 64 µg/mL)	–	53 µM (≈ 128 µg/mL)	–
CC[C@H](C)[C@H](NC(=O)CN)C(=O)N[C@@H](CCCCN)C(=O)N[C@@H](CCCCN)C(=O)N[C@@H](Cc1c[nH]c2ccccc12)C(=O)N[C@@H](CC(C)C)C(=O)N[C@@H](Cc1cnc[nH]1)C(=O)N[C@@H](CO)C(=O)N1CCC[C@H]1C(=O)N[C@@H](CCCCN)C(=O)N[C@@H](CCCCN)C(=O)N1CCC[C@H]1C(=O)NCC(=O)N[C@@H](CCCCN)C(=O)N[C@@H](CCCCN)C(=O)N[C@@H](Cc1ccccc1)C(=O)N[C@H](C(=O)N[C@@H](CCCCN)C(=O)N[C@@H](CCCCN)C(=O)N[C@H](C(=O)N[C@@H](CCSC)C(=O)N[C@@H](CC(N)=O)C(=O)N[C@@H](CO)C(N)=O)[C@@H](C)CC)C(C)C [GIKKWLHSPKKPGKKFVKKIMNS]	10 µM (≈ 26.8 µg/mL)	–	> 80 µM	–	–	–
NCC(=O)N[C@@H](CCCN=C(N)N)C(=O)N[C@@H](CCCN=C(N)N)C(=O)N1CCC[C@H]1C(=O)N[C@@H](CCCN=C(N)N)C(=O)N1CCC[C@H]1C(=O)N[C@@H](CCCN=C(N)N)C(=O)N1CCC[C@H]1C(=O)N[C@@H](CCCN=C(N)N)C(=O)N1CCC[C@H]1C(=O)N[C@@H](Cc1c[nH]c2ccccc12)C(=O)N[C@@H](Cc1c[nH]c2ccccc12)C(=O)N[C@@H](Cc1c[nH]c2ccccc12)C(N)=O [GRRPRPRPRPWWW]	–	40 µM (≈ 72.1 µg/mL)	20 µM (≈ 36 µg/mL)	–	80 µM (≈ 144 µg/mL)	–
CC(=O)N[C@@H](CCCCN)C(=O)N[C@@H](CC(C)C)C(=O)N[C@@H](CC(C)C)C(=O)N[C@@H](CCCCN)C(=O)N[C@@H](CC(C)C)C(=O)N[C@@H](CC(C)C)C(=O)N[C@@H](CCCCN)C(=O)N[C@@H](CCCCN)C(=O)N[C@@H](CC(C)C)C(=O)N1CCC[C@H]1C(=O)N[C@@H](CCCCN)C(=O)N[C@@H](CC(C)C)C(=O)N[C@@H](CC(C)C)C(=O)N[C@@H](CCCCN)C(N)=O [KLLKLLKKLPKLLK]	–	40 µM (≈ 68.7 µg/mL)	40 µM (≈ 68.7 µg/mL)	–	–	–
CC(=O)N[C@@H](CCCCN)C(=O)N[C@@H](CC(C)C)C(=O)N1CCC[C@H]1C(=O)N[C@@H](CCCCN)C(=O)N[C@@H](CC(C)C)C(=O)N[C@@H](CC(C)C)C(=O)N[C@@H](CCCCN)C(=O)N[C@@H](CCCCN)C(=O)N[C@@H](CC(C)C)C(=O)N[C@@H](CC(C)C)C(=O)N[C@@H](CCCCN)C(=O)N[C@@H](CC(C)C)C(=O)N[C@@H](CC(C)C)C(=O)N[C@@H](CCCCN)C(N)=O [KLPKLLKKLLKLLK]	–	10 µM (≈ 17.2 µg/mL)	10 µM (≈ 17.2 µg/mL)	–	–	–
CC(=O)N[C@@H](CCCCN)C(=O)N1CCC[C@H]1C(=O)N[C@@H](CC(C)C)C(=O)N[C@@H](CCCCN)C(=O)N[C@@H](CC(C)C)C(=O)N[C@@H](CC(C)C)C(=O)N[C@@H](CCCCN)C(=O)N[C@@H](CCCCN)C(=O)N[C@@H](CC(C)C)C(=O)N[C@@H](CC(C)C)C(=O)N[C@@H](CCCCN)C(=O)N[C@@H](CC(C)C)C(=O)N[C@@H](CC(C)C)C(=O)N[C@@H](CCCCN)C(N)=O [KPLKLLKKLLKLLK]	–	7.07 µM (≈ 12.1 µg/mL)	7.07 µM (≈ 12.1 µg/mL)	–	–	–
CC(C)C[C@H](NC(=O)[C@H](CCCCN)NC(=O)[C@H](CC(C)C)NC(=O)[C@H](CC(C)C)NC(=O)[C@H](CCCCN)NC(=O)[C@H](CCCCN)NC(=O)[C@H](CC(C)C)NC(=O)[C@H](CC(C)C)NC(=O)[C@H](CCCCN)NC(=O)[C@H](C)NC(=O)[C@H](CC(C)C)NC(=O)[C@H](CCCCN)NC(=O)[C@H](CCCCN)NC(=O)[C@@H](N)CC(C)C)C(=O)N[C@@H](C)C(=O)NCC(=O)O [LKKLAKLLKKLLKLAG]	–	10 µM (≈ 17.8 µg/mL)	10 µM (≈ 17.8 µg/mL)	–	–	–
CC(C)C[C@H](NC(=O)[C@H](C)NC(=O)[C@H](CCCCN)NC(=O)[C@H](CC(C)C)NC(=O)[C@H](CC(C)C)NC(=O)[C@H](CCCCN)NC(=O)[C@H](CCCCN)NC(=O)[C@@H](N)CC(C)C)C(=O)N[C@@H](CCCCN)C(=O)N[C@@H](CCCCN)C(=O)N[C@@H](CC(C)C)C(=O)N[C@@H](CC(C)C)C(=O)N[C@@H](CCCCN)C(=O)N[C@@H](CC(C)C)C(=O)N[C@@H](C)C(=O)NCC(=O)O [LKKLLKALKKLLKLAG]	–	10 µM (≈ 17.8 µg/mL)	10 µM (≈ 17.8 µg/mL)	–	–	–
CC(C)C[C@H](NC(=O)[C@H](CCCCN)NC(=O)[C@H](CC(C)C)NC(=O)[C@H](CC(C)C)NC(=O)[C@H](CCCCN)NC(=O)[C@H](CCCCN)NC(=O)[C@@H](N)CC(C)C)C(=O)NCC(=O)N[C@@H](CCCCN)C(=O)N[C@@H](CCCCN)C(=O)N[C@@H](CC(C)C)C(=O)N[C@@H](CC(C)C)C(=O)N[C@@H](CCCCN)C(=O)N[C@@H](CC(C)C)C(=O)N[C@@H](C)C(=O)NCC(=O)O [LKKLLKLGKKLLKLAG]	–	5 µM (≈ 8.82 µg/mL)	2.5 µM (≈ 4.41 µg/mL)	–	–	–
CC(=O)N[C@@H](CC(C)C)C(=O)N[C@@H](CCCCN)C(=O)N[C@@H](CCCCN)C(=O)N[C@@H](CC(C)C)C(=O)N[C@@H](CC(C)C)C(=O)N[C@@H](CCCCN)C(=O)N[C@@H](CC(C)C)C(=O)N[C@@H](CC(C)C)C(=O)N[C@@H](CCCCN)C(=O)N[C@@H](CCCCN)C(=O)N[C@@H](CC(C)C)C(=O)N[C@@H](CC(C)C)C(=O)N[C@@H](CCCCN)C(=O)N[C@@H](CC(C)C)C(N)=O [LKKLLKLLKKLLKL]	–	14.1 µM (≈ 24.5 µg/mL)	14.1 µM (≈ 24.5 µg/mL)	–	–	–
CC(=O)N[C@@H](CC(C)C)C(=O)N[C@@H](CCCCN)C(=O)N[C@@H](CCCCN)C(=O)N1CCC[C@H]1C(=O)N[C@@H](CC(C)C)C(=O)N[C@@H](CCCCN)C(=O)N[C@@H](CC(C)C)C(=O)NCC(=O)N[C@@H](CCCCN)C(=O)N[C@@H](CCCCN)C(=O)N[C@@H](CC(C)C)C(=O)N[C@@H](CC(C)C)C(=O)N[C@@H](CCCCN)C(=O)N[C@@H](CC(C)C)C(N)=O [LKKPLKLGKKLLKL]	–	40 µM (≈ 66.4 µg/mL)	7.07 µM (≈ 11.7 µg/mL)	–	–	–
CC[C@H](C)[C@H](NC(=O)[C@H](CCCN=C(N)N)NC(=O)[C@H](CCCCN)NC(=O)[C@@H](N)CCC(N)=O)C(=O)N[C@@H](CCCN=C(N)N)C(=O)N[C@H](C(=O)N[C@@H](CCCN=C(N)N)C(=O)N[C@@H](CC(C)C)C(=O)N[C@@H](CO)C(=O)N[C@@H](C)C(=O)O)C(C)C [QKRIRVRLSA]	–	> 52.2 µM	26.1 µM (≈ 32 µg/mL)	–	26.1 µM (≈ 32 µg/mL)	–
CC(C)C[C@H](NC(=O)[C@H](Cc1ccccc1)NC(=O)[C@H](C)NC(=O)[C@H](Cc1c[nH]c2ccccc12)NC(=O)[C@H](Cc1c[nH]c2ccccc12)NC(=O)[C@H](Cc1c[nH]c2ccccc12)NC(=O)[C@H](C)NC(=O)[C@H](Cc1ccccc1)NC(=O)[C@H](CCCN=C(N)N)NC(=O)[C@H](CCCN=C(N)N)NC(=O)[C@@H](N)C(C)C)C(=O)N[C@@H](CCCN=C(N)N)C(=O)N[C@@H](CCCN=C(N)N)C(N)=O [VRRFAWWWAFLRR]	–	–	2 µM (≈ 3.7 µg/mL)	5.4 µM (≈ 9.99 µg/mL)	–	2.7 µM (≈ 5 µg/mL)
CC(C)C[C@H](NC(=O)[C@H](Cc1ccccc1)NC(=O)[C@H](C)NC(=O)[C@H](Cc1c[nH]c2ccccc12)NC(=O)[C@H](Cc1c[nH]c2ccccc12)NC(=O)[C@H](Cc1c[nH]c2ccccc12)NC(=O)[C@@H]1CCCN1C(=O)[C@H](Cc1ccccc1)NC(=O)[C@H](CCCN=C(N)N)NC(=O)[C@H](CCCN=C(N)N)NC(=O)[C@@H](N)C(C)C)C(=O)N[C@@H](CCCN=C(N)N)C(=O)N[C@@H](CCCN=C(N)N)C(N)=O [VRRFPWWWAFLRR]	–	–	2.83 µM (≈ 5.3 µg/mL)	10.7 µM (≈ 20 µg/mL)	–	2.66 µM (≈ 5 µg/mL)
